The target in assay [1] is T1, CDK6/cyclin D3 (Homo sapiens, UniProt Q00534).
T1 construct: purchased Carna
As to the kind of experiment: In vitro biochemical kinase activity assay for CDK6/cyclin D3 (HTRF). The following applies: unmarked data: 100 µM ATP in Step 1. A digest of the protocol:
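HTRF assay: 0.02 nM CDK6/cyclin D3 incubated with 1 mM (or 100 µM) ATP and 0.3 µM Rb-biotin substrate at 30°C for 60 min in kinase buffer with 5 mM MgCl2 and 1 mM DTT.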

In assay [2] the target is T2, CDK4/cyclin D3 (Homo sapiens, UniProt P11802).
T2 construct: purchased Carna
T2 sequence (P11802 whole entry): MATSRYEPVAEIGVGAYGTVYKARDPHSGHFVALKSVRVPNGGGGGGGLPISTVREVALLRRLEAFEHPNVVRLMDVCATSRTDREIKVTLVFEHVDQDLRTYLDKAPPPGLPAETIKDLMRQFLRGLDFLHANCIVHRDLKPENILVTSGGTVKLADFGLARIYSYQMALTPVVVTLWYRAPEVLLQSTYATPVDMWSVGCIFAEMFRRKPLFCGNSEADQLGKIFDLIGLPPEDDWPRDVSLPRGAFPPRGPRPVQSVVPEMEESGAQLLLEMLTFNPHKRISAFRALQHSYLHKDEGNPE
T2 sequence (P30281 whole entry partner): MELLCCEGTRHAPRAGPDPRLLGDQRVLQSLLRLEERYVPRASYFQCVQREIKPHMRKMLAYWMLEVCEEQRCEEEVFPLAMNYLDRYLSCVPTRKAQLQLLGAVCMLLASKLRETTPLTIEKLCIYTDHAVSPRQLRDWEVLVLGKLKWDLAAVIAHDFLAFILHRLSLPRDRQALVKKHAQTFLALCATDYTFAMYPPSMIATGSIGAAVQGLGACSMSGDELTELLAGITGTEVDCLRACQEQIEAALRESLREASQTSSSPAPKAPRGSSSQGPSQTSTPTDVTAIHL
As to the kind of experiment: In vitro biochemical kinase activity assay for CDK4/cyclin D3 (HTRF). Particulars: unmarked data: 80 µM ATP in Step 1. A digest of the protocol:
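HTRF kinase reaction: 4.9 nM CDK4/cyclin D3, 1 mM (or 80 µM) ATP and 0.3 µM Rb-biotin substrate, 90 min at 30°C in buffer with 50 mM MgCl2 and 1 mM DTT.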
On the technique in general: TR-FRET usually uses a lanthanide donor and a delayed reading to cut background.

Assay [3] concerns the target T3, CDK2/cyclin E1 (Homo sapiens, UniProt P24941).
T3 construct: purchased Carna
As to the kind of experiment: In vitro biochemical kinase activity assay for CDK2/cyclin E1 (HTRF). The following applies: 1 µM ATP. As to the method: I. In Vitro Biochemical Kinase Activity Assay for CDK2/Cyclin E1
The inhibitory effects of the compounds of the present invention on CDK2/cyclin E1 kinase activity were determined using a homogeneous time-resolved fluorescence (HTRF) assay. The experimental process was as follows: • 1. The kinase reaction was carried out in a 384-well plate. 15 nM CDK2/cyclin E1 kinase (Carna), 1 µM ATP, and 1 µM biotin-labeled substrate protein ATF2-biotin (Cisbio) were incubated at room temperature for 90 min in a buffer system composed of 10 mM MgCl2, 1 mM MnCl2, 1 mM DTT, and basal kinase buffer (Cisbio). • 2. The detection solution (Cisbio, containing reagents that specifically recognize phosphorylated ATF2 and ATF2-biotin proteins, respectively) was added. The plate was then sealed with a film (to protect from light and volatilization) and incubated at 25°C for 60 min. • 3. The plate was transferred to an Envision plate reader to detect fluorescence resonance energy transfer (FRET) signals. (The 665/615 ratio was calculated by reading the emission at 665 nm and 615 nM, respectively.) • 4. The IC50 values were determined by analyzing the inhibition at varying compound concentrations using Model 205 in the XLfit software.

pIC50: −log10 of the molar value.

Experimental findings from patent publication EP4782445A1, “CDK KINASE INHIBITOR AND USE THEREOF” (Abbisko Therapeutics Co., Ltd., priority 2023, dated 2025) are described below.

For orientation: pIC50 means the negative decadic logarithm of the IC50, by convention in mol/L. Low readings indicate a large IC50, high ones a small IC50.

T1 sequence (Q00534 whole entry): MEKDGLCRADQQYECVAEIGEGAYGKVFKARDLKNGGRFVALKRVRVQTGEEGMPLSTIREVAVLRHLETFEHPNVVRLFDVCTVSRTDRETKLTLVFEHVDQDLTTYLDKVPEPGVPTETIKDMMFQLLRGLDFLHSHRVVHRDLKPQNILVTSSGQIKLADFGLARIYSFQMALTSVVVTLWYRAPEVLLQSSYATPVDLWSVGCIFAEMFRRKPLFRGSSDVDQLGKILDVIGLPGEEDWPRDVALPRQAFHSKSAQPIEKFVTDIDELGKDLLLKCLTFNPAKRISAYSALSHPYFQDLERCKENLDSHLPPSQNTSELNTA
T1 sequence (P30281 whole entry partner): as the sequence (P30281 whole entry partner) above

`CCN1CCN(Cc2ccc(Nc3ncc(Cl)c(C#Cc4cnc(C(C)(C)O)n4C(C)C)n3)nc2)CC1` [Example 41, 2-(5-((5-chloro-2-((5-((4-ethylpiperazin-1-yl)methyl)pyridin-2-yl)amino)pyrimidin-4-yl)ethynyl)-1-isopropyl-1H-imidazol-2-yl)propan-2-ol]: the pIC50 in assay [1] is 7.96; in assay [2], 8.74; in assay [3], 5.73.

For the compound `CC(=O)c1ncc(C#Cc2nc(N[C@@H]3CCOC[C@H]3O)ncc2Cl)n1C(C)C` [Example 52, 1-(5-((5-chloro-2-(((3 S,4R)-3-hydroxytetrahydro-2H-pyran-4-yl)amino)pyrimidin-4-yl)ethynyl)-1-isopropyl-1H-imidazol-2-yl)ethan-1-one], the results for the pIC50 in assay [1], in assay [2] and in assay [3] were 7.62, 8.21 and 5.53, respectively.

`CC(C)n1c(C#Cc2nc(N[C@@H]3COC[C@H]3O)ncc2Cl)cnc1C(C)(C)O` [Example 53, (3 S,4R)-4-((5-chloro-4-((2-(2-hydroxypropan-2-yl)-1-isopropyl-1H-imidazol-5-yl)ethynyl)pyrimidin-2-yl)amino)tetrahydrofuran-3-ol]: the results for the pIC50 in assay [1], in assay [2] and in assay [3] were 6.72, 7.22 and 6.31, respectively.

Turning to `CC(C)n1c(C#Cc2nc(Nc3ccc(C4CCN(C)CC4)cn3)ncc2Cl)cnc1C(C)(C)O` [Example 55, 2-(5-((5-chloro-2-((5-(1-methylpiperidin-4-yl)pyridin-2-yl)amino)pyrimidin-4-yl)ethynyl)-1-isopropyl-1H-imidazol-2-yl)propan-2-ol], the pIC50 in assay [1] was 8.72; in assay [2] it was 9.48; in assay [3], 5.67.

Turning to `CC(C)c1c(C#Cc2nc(N[C@@H]3CCOC[C@H]3O)ncc2Cl)cnn1C` [Example 56, (3 S,4R)-4-((5-chloro-4-((5-isopropyl-1-methyl-1H-pyrazol-4-yl)ethynyl)pyrimidin-2-yl)amino)tetrahydro-2H-pyran-3-ol], the results for the negative logarithm of the IC50 (pIC50) in assay [1], in assay [2] and in assay [3] were 7.31, 8.51 and 5.86, respectively.

Take `CC(C)c1c(C#Cc2nc(Nc3ccc(C4CCN(C)CC4)cn3)ncc2Cl)cnn1C` [Example 57, 5-chloro-4-((5-isopropyl-1-methyl-1H-pyrazol-4-yl)ethynyl)-N-(5-(1-methylpiperidin-4-yl)pyridin-2-yl)pyrimidin-2-amine]: the pIC50 in assay [1] was 8.43; in assay [2], 9.17; in assay [3], 5.55.

Regarding `CCN1CC2(C1)CN(c1ccc(Nc3ncc(F)c(C#Cc4cnn(C)c4C(C)C)n3)nc1)C2` [Example 61, N-(5-(6-ethyl-2,6-diazaspiro[3.3]heptan-2-yl)pyridin-2-yl)-5-fluoro-4-((5-isopropyl-1-methyl-1H-pyrazol-4-yl)ethynyl)pyrimidin-2-amine], the pIC50 in assay [1] is 8.07; in assay [2], 9.03; in assay [3], 6.21.

For `CCN1CC2(C1)CN(c1ccc(Nc3ncc(Cl)c(C#Cc4cnn(C)c4C(C)C)n3)nc1)C2` [Example 62, 5-chloro-N-(5-(6-ethyl-2,6-diazaspiro[3.3]heptan-2-yl)pyridin-2-yl)-4-((5-isopropyl-1-methyl-1H-pyrazol-4-yl)ethynyl)pyrimidin-2-amine], the negative-log IC50 (pIC50) in assay [1] is 8.31; in assay [2] it was 9.44; in assay [3], 6.89.

For the compound `CC(C)n1c(C#Cc2nc(N[C@@H]3CCOC[C@H]3O)ncc2Cl)cnc1CN(C)C` [Example 63, (3 S,4R)-4-((5-chloro-4-((2-((dimethylamino)methyl)-1-isopropyl-1H-imidazol-5-yl)ethynyl)pyrimidin-2-yl)amino)tetrahydro-2H-pyran-3-ol], the pIC50 is 6.89 in assay [1], 7.62 in assay [2] and 6.16 in assay [3].

Take `CC(C)n1c(C#Cc2cc(N[C@@H]3CCOC[C@H]3O)ncc2Cl)cnc1CN1CCC[C@H](O)C1` [Example 109, (S)-1-((5-((5-chloro-2-(((3 S,4R)-3-hydroxytetrahydro-2H-pyran-4-yl)amino)pyridin-4-yl)ethynyl)-1-isopropyl-1H-imidazol-2-yl)methyl)piperidin-3-ol]: the pIC50 in assay [1] is 6.65; in assay [2], 8.35; in assay [3], 5.50.
